Measurements published in patent US11229714B2, “Electrochemical reduction or prevention of infections” (WASHINGTON STATE UNIVERSITY, priority 2015, dated 2022).

Assays:
[1] = tested on: P. aeruginosa PAO1 biofilm cells; experiment: SEM imaging of biofilm cells; type: cell-based, Pseudomonas aeruginosa; conditions: 24 h treatment
Procedure: For SEM imaging, biofilms were grown for 24 hours on UV-sterilized, 0.22 μm type GV membrane filters placed in sterile 6-well plates. Exogenous H2O2 was added continuously at an average 0.008 mmol/h for 24 hours to mimic the e-scaffold generated H2O2 treatment. After treatment for 24 hours, both e-scaffolds and membrane filters with biofilms were aseptically collected from the untreated, e-scaffold treated, and exogenous H2O2 treated wells. The membrane filters and e-scaffolds were fixed overnight with 2.5% glutaraldehyde and 2% paraformaldehyde in 0.1 M phosphate buffer, followed by rinsing with 0.1 M phosphate buffer. The membranes and e-scaffolds were then dehydrated gradually by being washed sequentially with 10%, 30%, 50%, 70%, and 95% alcohol (10 min each) and 100% alcohol (3×10 min each). Samples were then sputter-coated with gold prior to field emission in-lens scanning electron microscopy imaging.

[2] = tested on: P. aeruginosa PAO1 biofilm cells; experiment: Intracellular hydroxyl free radical formation (HPF fluorescence); type: cell-based, Pseudomonas aeruginosa; conditions: treated vs untreated biofilm cells
Procedure: Intracellular hydroxyl free radical (OH•) formation was detected using 5 μM of a fluorescent reporter dye, 3′-(p-hydroxyphenyl fluorescein) (HPF). […] The samples were centrifuged (10,000×g for 10 min), and then the medium was replaced with a final concentration of 5 μM HPF prepared in 500 μL of 0.1 M PBS. After staining in the dark at room temperature for 15 minutes, samples were centrifuged at 10,000×g for 10 min. Supernatant was removed, and cells were rinsed and re-suspended with PBS. An aliquot (100 μL) was added to each well in a 96-well plate, and fluorescence intensity was quantified using a microplate reader with excitation at 490 and emission at 515 nm. For the OH• formation assays, fluorescence was estimated as ((Fluorescence with dye− Fluorescence without dye)/(Fluorescence without dye))*(100).

[3] = tested on: Acinetobacter baumannii biofilms; experiment: In vitro A. baumannii biofilm viable cell count (CFU, drop-plate); type: cell-based
Procedure: Acinetobacter baumannii biofilms were used to test efficacy of the e-scaffold. An overnight culture of Acinetobacter baumannii (ATCC #BAA-1605) was grown in full-strength Luria Broth (LB) medium (Sigma-Aldrich, catalog #L3522) and was re-suspended in 5% LB medium (OD600≈0.5). […] After 2 hours of initial attachment, the bacterial suspension was removed and the biofilms were washed twice to remove planktonic cells and then refreshed with 5% LB medium. Biofilms were allowed to develop for 24 hours. Before the e-scaffolds were applied, the bulk liquid was refreshed.
E-scaffolds were sterilized by autoclaving (121° C., 15 min) and were saturated with sterilized liquid medium before being applied to existing Acinetobacter baumannii biofilms. The scaffolds were then polarized at −600 mVAg/AgCl for 24 hours, after which biofilms were processed for the quantification of viable cells by scraping the e-scaffold and biofilms from the glass surfaces of the petri dish into 5 ml of LB medium (1 g/L). The suspensions were centrifuged, and the resulting cell pellet was re-suspended in 1 ml of LB medium (1 g/L), and serial dilutions were prepared. Colony-forming units (“CFU”) were counted using a drop-plate count method. […]
To test whether H2O2 can remove biofilms in vitro and from infected porcine explants, exogenous H2O2 (VWR, Catalog #RC3819-16, adjusted to a concentration similar to that produced by the e-scaffold) was added to Acinetobacter baumannii biofilms. […] First, the biofilms were exposed to the total calculated amount of H2O2 in a single administration. […]
Catalase (Sigma-Aldrich, catalog #C1345) was added to an Acinetobacter baumannii biofilm and measured protection against H2O2 produced by the e-scaffold. Prior to addition, the H2O2 decomposition rate per unit of catalase was determined from H2O2 microelectrode measurements. The total amount of catalase required per min for complete decomposition of H2O2 was calculated based on the rate of H2O2 generation by the e-scaffold. To ensure complete H2O2 decomposition, catalase was added in excess of the calculated value (5×=0.05 mg/ml). […]

[4] = tested on: P. aeruginosa PAO1 planktonic culture; experiment: Dose-dependent killing curve for ciprofloxacin, stationary phase planktonic culture; type: cell-based, Pseudomonas aeruginosa; conditions: 0-200 μg/ml, 200× of MIC
Procedure: (§1) To identify and isolate P. aeruginosa PAO1 persister cells, planktonic culture was grown to the stationary phase and the dose-dependent killing curve for ciprofloxacin (0-200 μg/ml) was investigated. […] Assessments were then performed on biofilms regrown from cells recovered after no treatment (“untreated biofilms”), cells recovered after e-scaffold treatment (“e-scaffold treated biofilm”), and “persister cells” that were isolated from biofilms treated with 200 μg/ml ciprofloxacin for 3.5 hours. The treated samples were washed with 0.9% NaCl and suspended in LB to isolate persister cells from ciprofloxacin-treated biofilms for subsequent experiments as described in more detail below.

[5] = tested on: P. aeruginosa PAO1 persister cells; experiment: Treatment of persister cells isolated from ciprofloxacin-treated biofilms (CFU); type: cell-based, Pseudomonas aeruginosa
Procedure: as §1
The total number of viable cells was determined for ciprofloxacin-treated and untreated biofilms using the modified drop-plate cell counting method. Remaining persister cells were then exposed to either 200 μg/ml ciprofloxacin or e-scaffold treatment for 6 hours. Final CFU values were then determined.

[6] = tested on: P. aeruginosa PAO1 biofilms; experiment: Tobramycin susceptibility of P. aeruginosa PAO1 biofilms with or without e-scaffold (CFU); type: cell-based, Pseudomonas aeruginosa; conditions: biofilms regrown from persister cells, 10 μg/ml tobramycin, no e-scaffold
Procedure: For the following experiments, 20 g/L (1×) Luria broth (LB) medium (Sigma-Aldrich, catalog #L3522) was used to grow P. aeruginosa PAO1 cultures overnight, and 1 g/L (0.05×) LB was used as the growth medium for biofilms. Tobramycin (Sigma Aldrich, catalog #T4014) and ciprofloxacin (Sigma Aldrich, catalog #17850) solutions were diluted in 1 g/L (0.05×) LB for antibiotic susceptibility experiments and persister cell isolation, respectively. Minimum inhibitory concentrations (MICs) were determined for both antibiotics following the Clinical and Laboratory Standards Institute (CLSI) protocol. Other compounds used include 3′-p-hydroxyphenyl fluorescein dye (Invitrogen, catalog #H36004), propidium iodide (Invitrogen, catalog #L-7012), thiourea (AK Scientific, Inc., catalog #S726), and H2O2 (VWR, Catalog #RC3819-16).
Frozen stocks of P. aeruginosa PAO1 were cultured overnight in LB at 37° C. on a rotating table. For biofilm experiments, overnight culture was adjusted to OD600≈0.5 in LB and used as an inoculum. 2 ml of culture was used to inoculate sterile glass bottom petri dishes and allowed to form biofilms for 24 hours. Such one day-old biofilms were treated with e-scaffolds for 24 hours. Untreated and e-scaffold treated biofilm cells were then washed twice to remove loosely attached cells. Remaining cells were recovered for antibiotic susceptibility testing. […]

[7] = tested on: P. aeruginosa PAO1 biofilms; conditions: general statement, no e-scaffold; cited from earlier work

OO [H2O2, hydrogen peroxide]
cell morphology in SEM images [1]: membrane-compromised cells
HPF fluorescence (OH• formation) [2]: increased fluorescence
reduction in Acinetobacter baumannii CFU ([3]; 45 mM H2O2 in a single administration, vs control without H2O2): ~3 log
reduction in bacterial counts ([3]; equivalent concentration of H2O2 delivered continuously over 24 hours): ~2 log

O=C(O)c1cn(C2CC2)c2cc(N3CCNCC3)c(F)cc2c1=O [ciprofloxacin]
ciprofloxacin concentration above which the surviving subpopulation plateaus [4]: above 50 μg/ml
change of final population of persister cells ([5]; additional 6 hours of 200 μg/ml ciprofloxacin treatment): did not change
share of total biofilm cells belonging to the persister population ([5]; biofilms treated with 200 μg/ml ciprofloxacin for 3.5 hours): about 0.31%

NC[C@H]1O[C@H](O[C@H]2[C@H](O)[C@@H](O[C@H]3O[C@H](CO)[C@@H](O)[C@H](N)[C@H]3O)[C@H](N)C[C@@H]2N)[C@H](N)C[C@@H]1O [tobramycin]
reduction in viable cells [6]: 1.2±0.16 log
tobramycin typically required for P. aeruginosa PAO1 biofilm treatment [7]: > 500 × of MIC

catalase
effect on biofilm ([3]; catalase itself (0.05 mg/ml)): no significant effect
